Test results: ChEMBL document CHEMBL1614632, “Trend analysis of a database of intravenous pharmacokinetic parameters in humans for 670 drug compounds” (Drug Metab Dispos, 2008)

Legend:
[1] = clinical; conditions: human, in vivo, iv, Vdss
[2] = clinical; conditions: human, in vivo, iv, t1/2
[3] = clinical; conditions: human, in vivo, iv
[4] = clinical; conditions: human, in vivo, iv, CL

SMILES | Vd [1] [L/kg] | half-life [2] [h] | MRT [3] [h] | clearance [4] [mL/min/kg]
C[C@](N)(Cc1ccc(O)c(O)c1)C(=O)O [METHYLDOPA] | 0.69 | 5.9 | 3.3 | 3.5
CC(C)NCC(O)COc1ccc(COCCOC(C)C)cc1 (stereo unspecified) [BISOPROLOL] | 2.4 | 10 |  | 3.7
CC[C@H](C)C(=O)O[C@H]1C[C@H](O)C=C2C=C[C@H](C)[C@H](CC[C@@H](O)C[C@@H](O)CC(=O)O)[C@H]21 [PRAVASTATIN] | 0.46 | 0.78 |  | 14
O=C1CN(/N=C/c2ccc(-c3ccc([N+](=O)[O-])cc3)o2)C(O)=N1 [DANTROLENE] | 0.37 | 10 | 14 | 0.43
O=C(O)c1cc(/N=N/c2ccc(O)c(C(=O)O)c2)ccc1O [OLSALAZINE] | 0.07 | 0.9 | 0.97 | 1.2
Cc1[nH]c(=O)c(C#N)cc1-c1ccncc1 [MILRINONE] | 0.25 | 0.8 | 0.67 | 6.2
CN1C(=O)C(O)N=C(c2ccccc2Cl)c2cc(Cl)ccc21 (stereo unspecified) [LORMETAZEPAM] | 1.6 | 4.9 | 6.7 | 4
CO[C@H]1/C=C/O[C@@]2(C)Oc3c(C)c(O)c4c(c3C2=O)C2=NC3(CCN(CC(C)C)CC3)NC2=C(NC(=O)/C(C)=C\C=C\[C@H](C)[C@H](O)[C@@H](C)[C@@H](O)[C@@H](C)[C@H](OC(C)=O)[C@@H]1C)C4=O [RIFABUTIN] | 9.3 | 37 | 65 | 2.4
CCN(CC)C(=O)/C(C#N)=C/c1cc(O)c(O)c([N+](=O)[O-])c1 [ENTACAPONE] | 0.27 |  | 0.38 | 12
COc1ccc(C(=O)Nc2ccccc2CCC2CCCCN2C)cc1 (stereo unspecified) [ENCAINIDE] | 2.2 | 2.6 | 2.8 | 13
C[N+](C)([O-])CCCN1c2ccccc2CCc2ccccc21 [IMIPRAMINOXIDE] | 1.9 | 1.8 | 2.6 | 12
C=CC[C@@H]1/C=C(\C)C[C@H](C)C[C@H](OC)[C@H]2O[C@@](O)(C(=O)C(=O)N3CCCC[C@H]3C(=O)O[C@H](/C(C)=C/[C@@H]3CC[C@@H](O)[C@H](OC)C3)[C@H](C)[C@@H](O)CC1=O)[C@H](C)C[C@@H]2OC [TACROLIMUS ANHYDROUS] | 1.2 | 26 | 27 | 0.7
CC1(C)S[C@@H]2[C@H](NC(=O)[C@H](N)c3ccc(O)cc3)C(=O)N2[C@H]1C(=O)O [AMOXICILLIN] | 0.25 | 1.1 | 1.3 | 3.3
N[C@@H]1CN(c2c(F)cc3c(=O)c(C(=O)O)cn([C@@H]4C[C@@H]4F)c3c2Cl)CC12CC2 [SITAFLOXACIN ANHYDROUS] | 1.5 | 6.6 | 6.7 | 3.7
Cc1cc(O)c2c(=O)c3c(O)cc(O)c4c5c(O)cc(O)c6c(=O)c7c(O)cc(CO)c8c1c2c(c34)c(c65)c78 [PSEUDOHYPERICIN] | 0.56 | 20 | 15 | 0.62
CC(CCc1ccc2c(c1)OCO2)NCC(O)c1ccc(O)c(C(N)=O)c1 (stereo unspecified) [MEDROXALOL] | 7.9 | 11 | 8.2 | 16
CN1Cc2c(N)cccc2C(c2ccccc2)C1 (stereo unspecified) [NOMIFENSINE] | 6 | 6.5 | 4.5 | 22
Nc1ccn([C@@H]2CO[C@H](CO)O2)c(=O)n1 [TROXACITABINE] | 1 | 82 | 6.9 | 2.4
CC[C@@]1(O)C(=O)OCc2c1cc1n(c2=O)Cc2c-1nc1cc(F)c(C)c3c1c2[C@@H](N)CC3 [EXATECAN] | 0.44 | 6.7 | 7.6 | 0.96
Cn1cc[nH]c1=S [METHIMAZOLE] | 0.86 | 2.4 | 3.8 | 3.7
O=C1NCC2(CCN(CCc3ccccc3)CC2)O1 [FENSPIRIDE] | 3 | 14 | 19 | 2.6
C[C@]12CCC(=O)C=C1CC[C@@H]1[C@@H]2[C@@H](O)C[C@@]2(C)[C@H]1CC[C@]2(O)C(=O)CO [HYDROCORTISONE] | 0.38 | 1.6 | 1.9 | 5.7
O=c1n(CCCN2CCN(c3cccc(Cl)c3)CC2)nc2ccccn12 [TRAZODONE] | 0.52 | 7.3 | 6.2 | 1.4
Nc1ccc(S(=O)(=O)Nc2ncccn2)cc1 [SULFADIAZINE] | 0.29 | 7 | 8.8 | 0.55
CN(C)CCc1c[nH]c2ccc(Cn3cncn3)cc12 [RIZATRIPTAN] | 1.9 | 2.2 | 1.98 | 16
CCCN(CCC)S(=O)(=O)c1ccc(C(=O)O)cc1 [PROBENECID] | 0.13 | 5.9 | 8.7 | 0.25
